Assay results taken from patent publication US7744897B2, “Human immunodeficiency virus gp41 mimetibody polypeptides” (priority 2003, dated 2010).
Read-outs that look alike come from different tables or passages of the source.

Columns and labels:
[1] = cited from earlier work
[2] = human serum, spiked at 1 mg/ml, 72 hours at 37° C., HPLC
Method: The stability of the T-1249 mimetibody in vitro was determined using HPLC. The T-1249 mimetibody (SEQ ID NO: 1) was spiked into human serum at 1 mg/ml. Using a C18 chromatography matrix, a peak corresponding to the T-1249 mimetibody was resolved from other serum proteins. […] Samples were taken at 0, 5, 25, and 72 hours after the addition of the T-1249 mimetibody into human serum. A background peak was used as a reference for each sample.

[3] = tested on: other isolates of HIV including an enfuvirtide-resistant strain; conditions: similar experiments
HIV = conditions: clinical trials; cited from earlier work

CC[C@H](C)[C@H](NC(=O)[C@H](CCC(N)=O)NC(=O)[C@H](C)NC(=O)[C@H](CCC(N)=O)NC(=O)[C@H](CCC(=O)O)NC(=O)[C@H](CC(C)C)NC(=O)[C@H](CC(C)C)NC(=O)[C@H](C)NC(=O)[C@@H](NC(=O)[C@@H](NC(=O)[C@H](CCCCN)NC(=O)[C@H](CCC(N)=O)NC(=O)[C@H](CCC(=O)O)NC(=O)[C@H](Cc1c[nH]c2ccccc12)NC(=O)[C@H](CCC(=O)O)NC(=O)[C@H](CCC(N)=O)NC(=O)[C@H](Cc1c[nH]c2ccccc12)NC(C)=O)[C@@H](C)CC)[C@@H](C)O)C(=O)N[C@@H](CCC(N)=O)C(=O)N[C@@H](CCC(N)=O)C(=O)N[C@@H](CCC(=O)O)C(=O)N[C@@H](CCCCN)C(=O)N[C@@H](CC(N)=O)C(=O)N[C@@H](CCC(=O)O)C(=O)N[C@@H](Cc1ccc(O)cc1)C(=O)N[C@@H](CCC(=O)O)C(=O)N[C@@H](CC(C)C)C(=O)N[C@@H](CCC(N)=O)C(=O)N[C@@H](CCCCN)C(=O)N[C@@H](CC(C)C)C(=O)N[C@@H](CC(=O)O)C(=O)N[C@@H](CCCCN)C(=O)N[C@@H](Cc1c[nH]c2ccccc12)C(=O)N[C@@H](C)C(=O)N[C@@H](CO)C(=O)N[C@@H](CC(C)C)C(=O)N[C@@H](Cc1c[nH]c2ccccc12)C(=O)N[C@@H](CCC(=O)O)C(=O)N[C@@H](Cc1c[nH]c2ccccc12)C(=O)N[C@@H](Cc1ccccc1)C(N)=O [T-1249 peptide]
plasma half-life ([1]; in vivo): 9 to 14 h

T-1249 mimetibody: Formula (II) polypeptide: V1 QIQ, single copy of T-1249, IgG J region, IgG1 hinge, CH2 and CH3; SEQ ID NO: 1
T-1249 mimetibody remained intact [2]: more than 93% | Activity against other isolates of HIV including an enfuvirtide-resistant strain [3]: active

enfuvirtide
Reduction of viral levels in infected patients (HIV): 1-2 logs | plasma half-life ([1]; human, plasma): about 1.8 hours
